Results on two compounds are retold here after article PMC7187199, “Investigation of a New Type I Baeyer–Villiger Monooxygenase from Amycolatopsis thermoflava Revealed High Thermodynamic but Limited Kinetic Stability” (Chembiochem, 2020).

One data set has as its target T1, TmCHMO (Thermocrispum municipale, UniProt A0A1L1QK39).
T1 sequence (A0A1L1QK39 1-541): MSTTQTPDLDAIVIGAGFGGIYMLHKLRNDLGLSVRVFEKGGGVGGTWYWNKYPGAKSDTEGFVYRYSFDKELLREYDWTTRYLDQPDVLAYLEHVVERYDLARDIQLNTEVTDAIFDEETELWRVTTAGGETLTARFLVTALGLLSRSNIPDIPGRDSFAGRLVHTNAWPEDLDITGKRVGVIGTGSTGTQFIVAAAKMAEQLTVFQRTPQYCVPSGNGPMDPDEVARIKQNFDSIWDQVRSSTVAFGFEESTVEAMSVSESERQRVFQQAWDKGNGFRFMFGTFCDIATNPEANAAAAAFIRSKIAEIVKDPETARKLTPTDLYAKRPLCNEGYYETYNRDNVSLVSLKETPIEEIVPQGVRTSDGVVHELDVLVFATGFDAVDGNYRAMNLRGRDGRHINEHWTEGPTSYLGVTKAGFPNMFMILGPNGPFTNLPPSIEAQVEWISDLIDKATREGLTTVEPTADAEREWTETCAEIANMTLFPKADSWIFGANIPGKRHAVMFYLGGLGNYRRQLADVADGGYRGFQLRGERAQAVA
As to the kind of experiment: NADPH oxidation at […] nm. The data set is classed as biochemical. As to conditions: 0.5 mM cyclohexanone, 100 μM NADPH, 10 μM FAD, 50 mM Tris-HCl, 30 °C.

The target in a further data set is T2, CHMOAcineto (Acinetobacter johnsonii, UniProt P12015).
T2 construct: gene chnB
As to the kind of experiment: NADPH oxidation at […] nm. The conditions noted are these: 100 μM NADPH, 50 mM Tris-HCl, 30 °C. It counts as biochemical.

A further data set has as its system O=C1CCCCC1. As to the kind of experiment: purified protein. The conditions noted are these: 100 μM NADPH, 50 mM Tris-HCl, 30 °C.

T2 sequence (P12015 2-543): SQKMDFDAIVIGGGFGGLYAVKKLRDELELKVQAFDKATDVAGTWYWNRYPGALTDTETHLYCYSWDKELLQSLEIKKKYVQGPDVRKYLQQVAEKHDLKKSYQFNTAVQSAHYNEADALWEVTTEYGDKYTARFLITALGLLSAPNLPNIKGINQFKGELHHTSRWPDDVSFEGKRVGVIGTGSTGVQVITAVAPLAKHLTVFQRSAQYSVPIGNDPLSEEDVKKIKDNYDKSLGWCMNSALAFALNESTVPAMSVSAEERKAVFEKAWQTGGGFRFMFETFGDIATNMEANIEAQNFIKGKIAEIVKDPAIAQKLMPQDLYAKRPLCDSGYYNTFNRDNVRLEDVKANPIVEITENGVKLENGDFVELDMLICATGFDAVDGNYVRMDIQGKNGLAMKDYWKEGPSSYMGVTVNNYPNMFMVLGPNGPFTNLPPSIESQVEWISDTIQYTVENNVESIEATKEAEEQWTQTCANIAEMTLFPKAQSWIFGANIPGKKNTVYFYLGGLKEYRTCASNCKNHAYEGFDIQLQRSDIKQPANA

On to `O=C1CCCCC1` [cyclohexanone], for which, at TmCHMO, the “NADPH oxidation at 340 nm” value is given as “The activity was comparable to that of TmCHMO”. Further, the Km on CHMOAcineto was found to be 6.74 ± 2 µM.
Turning to BVMOFlava (Amycolatopsis thermoflava), in the data set with O=C1CCCCC1, the Km stood at 0.53 ± 0.1 µM and the kcat is 1.5 ± 0.1 s⁻¹.

What is called Km is the concentration of substrate that gives half-maximal velocity. By kcat is commonly meant the number of substrate molecules converted per active site and unit of time at saturation.
